From US20030078211A1, “Compositions and methods for inhibiting bone resorption” (Merck & Co., Inc., priority 1998, published 2003)
*: point of attachment. Cbz = O=C(OCc1ccccc1)*; CH2F = FC*

Legend:
Mst 1 = assay: In-gel kinase assay using myelin basic protein as a substrate, purified osteoclast-like cells (FIG. 4); assay type: cell-based, mice; details: for effect of caspase inhibitor on activation of Mst 1 by alendronate monosodium trihydrate: 20 μM caspase inhibitor with 30 μM alendronate monosodium trihydrate, FIG. 4 lanes 6-8
Procedure: Murine co-cultures of osteoblasts and marrow cells are prepared using the methods of Wesolowski, et al., Exp Cell Res, (1995), 219, pp. 679-686, which is incorporated by reference herein in its entirety. Bone marrow cells are harvested from 6-week-old male Balb/C mice by flushing marrow spaces of freshly isolated long bones (tibiae and femora) with α-MEM (minimal essential media) containing penicillin/streptomycin (100 I.U./ml of each and 20 mM Hepes buffer). The bone marrow cells are suspended in α-MEM and the cells are filtered through an approximately 70 μm cell strainer. The filtrate is centrifuged at about 300×g for about 7 minutes. The resulting pellet is resuspended in α-MEM supplemented with fetal calf serum (10% v/v) and 10 nM 1, 25-(OH)2 vitamin D3. These bone marrow isolates are added to sub-confluent monolayers of osteoblastic MB 1.8 cells in cell culture plates and cultured for 7 days at 37° C. in the presence of 5% CO2. Culture media is replenished ever other day. Fusion of the osteoclast precursor cells from bone marrow (with each other) to form multinucleated osteoclast-like cells typically occurs after about 7 days. Osteoclast-like cells are enriched by sequential treatment with collagenase (1 mg/mL in phosphate buffered saline) for one hour at 37° C. and EDTA (0.2 g/L in phosphate buffered saline) for 20 min at 37° C. Non-adherent cells are rinsed away by washing with phosphate buffered saline. […]
The compounds to be evaluated are prepared as a solution of the desired concentration in α-MEM. Examples of compounds that can be evaluated include nitrogen-containing bisphosphonates such as alendronate monosodium trihydrate, as well as compounds that block the effects of these inhibitors, such as caspase inhibitors such as Z-Val-Ala-Asp-FMK, Z-Asp-Glu-Val-Asp-FMK, and Z-Tyr-Val-Ala-Asp-FMK. Combinations of compounds can also be evaluated. The solutions of the compounds to be evaluated are added to the cultures for a time period of 17-24 hours. […]
Cells are then harvested and lysed in a HEPES (N-(2-hydroxyethyl)piperazine-N′-(2-ethansulfonic acid) or Tris buffer containing the following: β-glycerophosphate (50 mM); Na3VO4 (1 mM); NaF (1 mM); Microcystin LR (1 μM); leupeptin (10 μg/ml); aprotinin (10 μg/ml); phenylmethyl sulfonylfluoride (1 mM). Protein concentrations are determined for each lysate and 5-20 μg are loaded into each lane of a SDS-PAGE (sodium dodecyl sulfate-polyacrylamide gel electrophoresis) gel containing Myelin Basic Protein, or another kinase substrate, which has been polymerized into the gel at a concentration between 50-400 μg/ml. […]

osteoclast = assay: Osteoclast cell cultures and bone resorption assays; assay type: cell-based
[1] = system: 34 kDa Mst kinase fragment; assay: In-gel kinase assay of lysates of treated osteoclast-like cells; assay type: cell-based, mice; details: for activation of the 34 kDa Mst Kinase fragment: FIG. 2; for activation of a 34 kDa Kinase: FIG. 3
Procedure: Murine co-cultures of osteoblasts and marrow cells are prepared using the methods of Wesolowski, et al., Exp Cell Res, (1995), 219, pp. 679-686, which is incorporated by reference herein in its entirety. Bone marrow cells are harvested from 6-week-old male Balb/C mice by flushing marrow spaces of freshly isolated long bones (tibiae and femora) with α-MEM (minimal essential media) containing penicillin/streptomycin (100 I.U./ml of each and 20 mM Hepes buffer). The bone marrow cells are suspended in α-MEM and the cells are filtered through an approximately 70 μm cell strainer. The filtrate is centrifuged at about 300×g for about 7 minutes. The resulting pellet is resuspended in α-MEM supplemented with fetal calf serum (10% v/v) and 10 nM 1, 25-(OH)2 vitamin D3. These bone marrow isolates are added to sub-confluent monolayers of osteoblastic MB 1.8 cells in cell culture plates and cultured for 7 days at 37° C. in the presence of 5% CO2. Culture media is replenished ever other day. Fusion of the osteoclast precursor cells from bone marrow (with each other) to form multinucleated osteoclast-like cells typically occurs after about 7 days. Osteoclast-like cells are enriched by sequential treatment with collagenase (1 mg/mL in phosphate buffered saline) for one hour at 37° C. and EDTA (0.2 g/L in phosphate buffered saline) for 20 min at 37° C. Non-adherent cells are rinsed away by washing with phosphate buffered saline. Osteoclast-like cells which are resistant to the sequential treatments are present at about 95% purity and are maintained in α-MEM supplemented with fetal calf serum (10% v/v), 10 nM 1,25-(OH)2 vitamin D3, macrophage-colony-stimulating factor (5 ng/mL).
The compounds to be evaluated are prepared as a solution of the desired concentration in α-MEM. Examples of compounds that can be evaluated include nitrogen-containing bisphosphonates such as alendronate monosodium trihydrate, as well as compounds that block the effects of these inhibitors, such as caspase inhibitors such as Z-Val-Ala-Asp-FMK, Z-Asp-Glu-Val-Asp-FMK, and Z-Tyr-Val-Ala-Asp-FMK. Combinations of compounds can also be evaluated. The solutions of the compounds to be evaluated are added to the cultures for a time period of 17-24 hours. No treatment controls (controls not treated with comcpounds) are prepared by adding equivalent volumes of α-MEM to the control dishes.
Cells are then harvested and lysed in a HEPES (N-(2-hydroxyethyl)piperazine-N′-(2-ethansulfonic acid) or Tris buffer containing the following: β-glycerophosphate (50 mM); Na3VO4 (1 mM); NaF (1 mM); Microcystin LR (1 μM); leupeptin (10 μg/ml); aprotinin (10 μg/ml); phenylmethyl sulfonylfluoride (1 mM). Protein concentrations are determined for each lysate and 5-20 μg are loaded into each lane of a SDS-PAGE (sodium dodecyl sulfate-polyacrylamide gel electrophoresis) gel containing Myelin Basic Protein, or another kinase substrate, which has been polymerized into the gel at a concentration between 50-400 μg/ml. Molecular weight standards are also loaded into one or more lanes of the gels. In-gel kinase assays are run according to a standard procedure based on Kameshita and Fujisawa, 1989 (Anal. Biochem. 183:139-143) and of Gotoh et al., 1990 (Eur. J. Biochem. 193: 661-669), both references being incorporated by reference herein in their entirety. The proteins are electrophoresed in the above gels. The gels are then successively soaked in 50 mM HEPES, pH 7.6; 5 mM 2-mercaptoethanol and each of the following (for each wash): (a) 20% isopropanol; (b) no additions; (c) urea (6 M); (d) Urea (3 M); (e) Urea (0.75 M); and Tween 20 (0.05% vol:vol). Kinase reactions are then run by first soaking the gels in 20 mM HEPES, pH 7.6; 20 mM MgCl2; 2 mM DTT and then in the same buffer containing […] ATP (non-radioactive) with ca. 1000 cpm/pmol ^32P-γ-ATP. The gels are then washed six times with 5% trichloroacetic acid and 1% pyrophosphate.

[2] = system: Mst (mammalian Sterile-20-like kinase); assay: Bisphosphonate-induced cleavage of Mst in osteoclasts; assay type: cell-based

Row | Compound | effect of caspase inhibitor on activation of Mst 1 by alendronate monosodium trihydrate (Mst 1) | effect on the inhibitory effect otherwise observed with a bisphosphonate such as alendronate monosodium trihydrate (osteoclast) | activation of the 34 kDa Mst Kinase fragment ([1]; 30 μM, about 17 hours) | activation of a 34 kDa Kinase ([1]; 100 μM, 17 hours) | activation of the 34 kDa Mst Kinase fragment ([1]; 100 μM, about 17 hours) | activation of a 34 kDa Kinase ([1]; 300 μM, 17 hours) | further results
1 | Z-Asp-Glu-Val-Asp-FMK (Cbz-DEVD-CH2F; SMILES CC(C)[C@H](NC(=O)[C@H](CCC(=O)O)NC(=O)[C@H](CC(=O)O)NC(=O)OCc1ccccc1)C(=O)N[C@@H](CC(=O)O)C(=O)CF) | blocked | can block the inhibitory effect |  |  |  |  | 
2 | Z-Tyr-Val-Ala-Asp-FMK (Cbz-YVAD-CH2F; SMILES CC(C)[C@H](NC(=O)[C@H](Cc1ccc(O)cc1)NC(=O)OCc1ccccc1)C(=O)N[C@@H](C)C(=O)N[C@@H](CC(=O)O)C(=O)CF) | blocked | can block the inhibitory effect |  |  |  |  | 
3 | CC(O)(P(=O)(O)O)P(=O)(O)O [etidronate disodium] |  |  | fail to activate | fail to activate | fail to activate | fail to activate | 
4 | Cbz-Val-Ala-Asp-CH2F | blocked | can block the inhibitory effect |  |  |  |  | effect on cleavage of Mst induced by bisphosphonates such as alendronate monosodium trihydrate [2]: prevent the cleavage of Mst; activation of the 34 kDa Kinase by alendronate when coincubated with the caspase inhibitor ([1]; coincubation with alendronate, FIG. 3 lane 8): does not activate
5 | NCCCC(O)(P(=O)(O)O)P(=O)(O)O [alendronate monosodium trihydrate, 4-amino-1-hydroxybutylidene-1,1-bisphosphonic acid monosodium trihydrate] |  |  | activation |  | activation |  | activation of Mst 1 (Mst 1; 30 μM, osteoclast-like cells, FIG. 4): activation; activation of a 34 kDa Kinase ([1]; 10 μM, about 17 hours): activation; activation of the 34 kDa Mst Kinase fragment immunoprecipitated by anti-Mst and anti-Krs antibody cocktail ([1]; 30 μM, FIG. 1 lane 3): activated; activation of a 34 kDa Kinase ([1]; 30 μM, about 17 hours): activation
6 | O=P(O)(O)C(Sc1ccc(Cl)cc1)P(=O)(O)O [tiludronate disodium] |  |  | fail to activate | fail to activate | fail to activate | fail to activate | 
